Assay results from US8741659B2, “Composition for measuring the binding affinity between nucleic acid and test substance, and use thereof” (Osaka University, priority 2007, dated 2014).

What was measured:
[1] = test system: single strand RNA (ssRNA), SEQ ID NO: 7; assay: Binding between X2S and single strand RNA
Experimental: In this Example, binding between X2S and a single strand RNA (hereinafter, referred to as “ssRNA”) was evaluated. Specifically, the evaluation was performed in the same manner as that described in Example 2. However, the evaluation performed in this Example differed from that performed in Example 2 in the following points: Instead of the double strand RNA, an ssRNA was used; The ssRNA was added in steps at 0 μM, 1 μM, 2 μM, 3 μM, 4 μM, 5 μM, 6 μM, 7 μM, and 8 μM; The ssRNA was purchased from: Hokkaido System Science Co., Ltd. The sequence of the ssRNA is shown in SEQ ID NO: 7.
FIG. 18 is a view illustrating the result of the evaluation of binding between X2S and the ssRNA. The horizontal axis represents the fluorescence wavelength, whereas the vertical axis represents the fluorescence intensity.

[2] = test system: RRE; assay: Displacement assay using Rev peptide after formation of complex with RRE; format: binding, HIV-1; conditions: compound and RRE each 2 μM, Rev protein 0-4.0 μM
Experimental: In this Example, a binding affinity between a test substance and RRE was evaluated, with use of the compounds, X2S, X2S(3), X2S(4), X2S(5), X2S(2-Me), and 3,6-X2S(2). As the test substance, Rev protein used in Example 5 was used.
Firstly, in the same manner as in Example 3, the above compounds and RREs were respectively dissolved in cacodylate buffer solutions (sodium cacodylate: 10 mM pH 7.0, NaCl: 100 mM) each at 2 μM, so that an X2S-RRE solution, an X2S(3)-RRE solution, an X2S(4)-RRE solution, an X2S(5)-RRE solution, an X2S(2-Me)-RRE solution, and a 3,6-X2S(2)-RRE solution were prepared.
To each of these solutions, Rev protein was added in stages at 0 μM, 0.4 μM, 0.8 μM, 1.2 μM, 1.6 μM, 2.0 μM, 2.4 μM, 2.8 μM, 3.2 μM, 3.6 μM, and 4.0 μM. Further, a fluorescence intensity was measured at each concentration. The fluorescence intensity was measured in the same manner as that described in Example 14.
Each of FIGS. 43 to 48 is a view illustrating a result of the measurement of a binding affinity between Rev protein and RRE. […] In each of FIGS. 43 to 48, the horizontal axis represents the fluorescence wavelength, whereas the vertical axis represents the fluorescence intensity. […] Further, along the direction of the arrow extending from the curved line at the bottom, the curved lines, showing the respective results, are arranged in order of increasing amount of the test substance which was added.
FIG. 49 is a view illustrating a relationship between an amount of Rev added and a fluorescence intensity, in connection with X2S, X2S(3), X2S(4), X2S(5), X2S(2-Me), and 3,6-X2S(2). Further, FIG. 49 is also a view plotting, based on the results illustrated in FIGS. 43 to 48, the fluorescence intensities detected at the fluorescence wavelength at which the respective fluorescence peaks were observed. FIG. 50 is a graph illustrating a relationship between an amount of Rev added and a recovery rate of the fluorescence intensity. In FIG. 49, the vertical axis represents the fluorescence intensity. In FIG. 50, the vertical axis represents the recovery rate of the fluorescence intensity. In each of FIGS. 49 and 50, the horizontal axis represents the amount of Rev added. That is, each of FIGS. 49 and 50 reflects amounts of the above compounds liberated from RREs due to the addition of Rev.
The recovery rate of the fluorescence intensity was obtained by dividing (i) a maximum value of the fluorescence intensity detected at each Rev concentration ranging from 0 μM to 4.0 μM in each of FIGS. 43 to 48 by (ii) a maximum value of the fluorescence intensity of the curved line at the top in each of FIGS. 43 to 48.
In this Example, 1-Pyrenemethanamide, hydrochloride was used to measure a binding affinity between a test substance and RRE. As the test substance, Rev protein used in Example 5 was used.
Firstly, in the same manner as in Example 3, 1-Pyrenemethanamide, hydrochloride and RRE were dissolved in a cacodylate buffer solution (sodium cacodylate: 10 mM, pH 7.0; NaCl: 100 mM) each at 2 μM, so that a 1-Pyrenemethanamide, hydrochloride-RRE solution was prepared.
To the solution, Rev protein was added in steps at 0 μM, 0.4 μM, 0.8 μM, 1.2 μM, 1.6 μM, 2.0 μM, 2.4 μM, 2.8 μM, 3.2 μM, 3.6 μM, and 4.0 μM. Further, the solution at each concentration was irradiated with light having an excitation wavelength of 340 nm, and a fluorescence intensity was measured. A device used for measuring a fluorescence intensity and a variation in a slit width were the same as those in Example 13.
FIG. 55 is a view illustrating a result of the measurement of a binding affinity between Rev protein and RRE. The horizontal axis represents the fluorescence wavelength, whereas the vertical axis represents the fluorescence intensity. […] Further, along a bottom-to-top direction, the curved lines, showing the respective results, are arranged in order of increasing amount of the test substance which was added. […]

NCCOc1ccc2oc3ccc(OCCN)cc3c(=O)c2c1 [X2S, 2,7-bis(2-aminoethoxy)xanthen-9-one]
amount of change of fluorescence intensity ([1]; 0 μM versus 8 μM ssRNA): approximately 50%
binding to ssRNA ([1]; ssRNA 0-8 μM): binds to an ssRNA
fluorescence intensity in displacement assay [2]: high
recovery rate of the fluorescence intensity [2]: good
